Reference: US12673041B2, “4-aminobut-2-enamide derivatives and salt thereof” (TAIHO PHARMACEUTICAL CO., LTD., priority 2019, dated 2026)

Key:
MIA PaCa-2 cells = experiment: Growth inhibition activity on KRAS-G12C mutant cell line (MIA PaCa-2); format: cell-based; details: Homo sapiens, 72 h; MIA PaCa-2, 3-day culture, CellTiter-Glo 3D
Method: MIA PaCa-2 cells (given by Sumitomo Dainippon Pharma Co., Ltd.), which are a KRAS-G12C mutant human pancreas cancer cell line, were suspended in a 10% fetal bovine serum-containing RPMI1640 medium (manufactured by Fujifilm Wako Pure Chemical Corporation.). The cell suspension was seeded into each well of a 384-well U bottom microplate and cultured in an incubator containing 5% CO2 gas at 37° C. for 1 day. The compounds obtained in the “Preparation of Compounds” section were used as test compounds and were dissolved in DMSO, respectively, and each test compound was diluted with DMSO to give a concentration 500 times the final concentration. The resultant solution of the test compound in DMSO was diluted with the medium used for suspending cells and added to each well of the cell-culture plate to give a DMSO final concentration of 0.2%, followed by culture in an incubator containing 5% CO2 gas at 37° C. for another 3 days. The cell count after 3-day culture in the presence of the test compound was measured using CellTiter-Glo 3D Reagent (manufactured by Promega Corporation). All wells were added with CellTiter-Glo 3D Reagent and mixed for 10 minutes. 30 minutes after mixing, luminescence was measured by a plate reader. The growth inhibition rate was calculated from the following equation, and the concentration of the test compound at which 50% inhibition was achieved (IC50 (nM)) was determined. […] Growth Inhibition Rate (%)=(C−T)/(C)×100 • T: the emission intensity in a well into which a test compound was added. • C: the emission intensity in a well into which a test compound was not added.

[1] = biological target: Gppcp-bound recombinant K-Ras4B G12C mutant protein (amino acids 1-169, C51S/C80L/C118S) (Homo sapiens, UniProt P01116, C118S/C51S/C80L/G12C); experiment: KRASG12C binding assay (LC-MS compound binding rate); details: test compound final concentration 0.5 μM, 25° C., 1 hour
Method in brief: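 Gppcp-bound K-Ras4B G12C (aa 1-169, C51S/C80L/C118S) at 50 nM in 1×TBS, 0.1 mM TCEP, 0.25 mM MgCl2, 50 μM Gppcp was incubated 1 hour at 25° C with compound at 0.5 μM final. Intact-protein LC-MS gave binding rate as single-adduct signal over total KRAS signal, graded A (≥80%) to E (<20%).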

[2] = biological target: T1, GMPPNP-bound KRAS G12C protein and cRAF RAS-binding domain (cRAF-RBD) (Homo sapiens, UniProt P01116, G12C); experiment: Inhibitory activity on interaction between KRAS G12C and cRAF (Alpha technology); format: biochemical; details: GMPPNP-bound KRAS G12C incubated with compound at 25° C. for 1 hour, then cRAF-RBD, Alpha signal; read-out: IC50
T1 construct: made in house; host or cells: E. coli
Method in brief: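 GMPPNP-loaded His-KRAS G12C (aa 1-169) preincubated 1 h at 25 °C with compound (pH 7.5 Tris, 1 mM MgCl2, TCEP, Tween 20), then cRAF-RBD (aa 50-132) and Alpha reagents added for 1.5 h at RT. Inhibition scaled between DMSO (0%) and GDP-bound KRAS (100%); IC50 by curve fitting.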

Compound | IC50 (MIA PaCa-2 cells) [nM] | binding rate [1] | IC50 [2] [nM]
Cn1cnc2cc(-c3cccn4c(C(=O)c5ccc(NC(=O)/C=C/CNC(C)(C)C)c(F)c5)ccc34)c(C(F)(F)F)cc21 [Example 51, (2E)-4-(tert-Butylamino)-N-(2-fluoro-4-{8-[1-methyl-6-(trifluoromethyl)-1H-1,3-benzodiazol-5-yl]indolizine-3-carbonyl}phenyl)but-2-enamide] | 170 | B (a binding rate of 60% or more and less than 80% is rated “B”) | 95
Cn1cnc2c(Cl)c(-c3cccn4c(C(=O)c5ccc(NC(=O)/C=C/CNC(C)(C)C)c(C#N)c5)ccc34)c(Cl)cc21 [Example 55, (E)-4-(tert-butylamino)-N-(2-cyano-4-(8-(4,6-dichloro-1-methyl-1H-benzo[d]imidazol-5-yl)indolizine-3-carbonyl)phenyl)but-2-enamide] | 140 | A (A binding rate of 80% or more is rated “A”) | 21
CO[C@H]1CC[C@H](NC/C=C/C(=O)Nc2ccc(C(=O)c3csc4c(-c5cc6ncn(C)c6cc5C)cccc34)cc2C#N)CC1 [Example 56, (E)-N-(2-cyano-4-(7-(1,6-dimethyl-1H-benzo[d]imidazol-5-yl)benzo[b]thiophene-3-carbonyl)phenyl)-4-(((1r,4r)-4-methoxycyclohexyl)amino)but-2-enamide] | 350 | A (A binding rate of 80% or more is rated “A”) | 86
Cc1cc2c(ncn2C)c(Cl)c1-c1cccn2c(C(=O)c3ccc(NC(=O)/C=C/CNC(C)(C)C)c(C#N)c3)ccc12 [Example 59, (E)-4-(tert-butylamino)-N-(4-(8-(4-chloro-1,6-dimethyl-1H-benzo[d]imidazol-5-yl)indolizine-3-carbonyl)-2-cyanophenyl)but-2-enamide] | 64 | A (A binding rate of 80% or more is rated “A”) | 19
CO[C@H]1CC[C@H](NC/C=C/C(=O)Nc2ccc(C(=O)c3ccc4c(-c5c(C)cc6c(ncn6C)c5Cl)cccn34)cc2C#N)CC1 [Example 60, (E)-N-(4-(8-(4-chloro-1,6-dimethyl-1H-benzo[d]imidazol-5-yl)indolizine-3-carbonyl)-2-cyanophenyl)-4-(((1r,4r)-4-methoxycyclohexyl)amino)but-2-enamide] | 59 | A (A binding rate of 80% or more is rated “A”) | 20
CO[C@H]1CC[C@H](NC/C=C/C(=O)Nc2ccc(C(=O)c3ccc4c(-c5c(C)cc6c(ncn6C)c5C(C)C)cccn34)cc2C#N)CC1 [Example 64, (E)-N-(2-cyano-4-(8-(4-isopropyl-1,6-dimethyl-1H-benzo[d]imidazol-5-yl)indolizine-3-carbonyl)phenyl)-4-(((1r,4r)-4-methoxycyclohexyl)amino)but-2-enamide] | 69 | A (A binding rate of 80% or more is rated “A”) | 82
CN(C)C/C=C/C(=O)Nc1ccc(C(=O)c2ccc3c(-c4cc5ncn(C)c5cc4C(F)(F)F)cccn23)cc1C#N [Example 66, (E)-N-(2-cyano-4-(8-(1-methyl-6-(trifluoromethyl)-1H-benzo[d]imidazol-5-yl)indolizine-3-carbonyl)phenyl)-4-(dimethylamino)but-2-enamide] | 240 | C (a binding rate of 40% or more and less than 60% is rated “C”) | 84
Cn1cnc2cc(-c3cccn4c(C(=O)c5cc(F)c(NC(=O)/C=C/CNC(C)(C)C)c(F)c5)cnc34)c(C(F)(F)F)cc21 [Example 67, (E)-4-(tert-butylamino)-N-(2,6-difluoro-4-(8-(1-methyl-6-(trifluoromethyl)-1H-benzo[d]imidazol-5-yl)imidazo[1,2-a]pyridine-3-carbonyl)phenyl)but-2-enamide] | 560 | B (a binding rate of 60% or more and less than 80% is rated “B”) | 63
CO[C@H]1CC[C@H](NC/C=C/C(=O)Nc2c(F)cc(C(=O)c3cnc4c(-c5cc6ncn(C)c6cc5C(F)(F)F)cccn34)cc2F)CC1 [Example 68, (E)-N-(2,6-difluoro-4-(8-(1-methyl-6-(trifluoromethyl)-1H-benzo[d]imidazol-5-yl)imidazo[1,2-a]pyridine-3-carbonyl)phenyl)-4-(((1r,4r)-4-methoxycyclohexyl)amino)but-2-enamide] | 240 | B (a binding rate of 60% or more and less than 80% is rated “B”) | 57
CO[C@H]1CC[C@H](NC/C=C/C(=O)Nc2c(F)cc(C(=O)c3ccc4c(-c5cc6ncn(C)c6cc5C(F)(F)F)cccn34)cc2F)CC1 [Example 70, (E)-N-(2,6-difluoro-4-(8-(1-methyl-6-(trifluoromethyl)-1H-benzo[d]imidazol-5-yl)indolizine-3-carbonyl)phenyl)-4-(((1r,4r)-4-methoxycyclohexyl)amino)but-2-enamide] | 72 | A (A binding rate of 80% or more is rated “A”) | 27
Cc1cc2c(cc1-c1cccn3c(C(=O)c4cc(F)c(NC(=O)/C=C/CNC(C)(C)C)c(F)c4)ccc13)ncn2C [Example 72, (E)-4-(tert-butylamino)-N-(4-(8-(1,6-dimethyl-1H-benzo[d]imidazol-5-yl)indolizine-3-carbonyl)-2,6-difluorophenyl)but-2-enamide] | 200 | A (A binding rate of 80% or more is rated “A”) | 34
CO[C@H]1CC[C@H](NC/C=C/C(=O)Nc2c(F)cc(C(=O)c3ccc4c(-c5cc6ncn(C)c6cc5C)cccn34)cc2F)CC1 [Example 73, (E)-N-(4-(8-(1,6-dimethyl-1H-benzo[d]imidazol-5-yl)indolizine-3-carbonyl)-2,6-difluorophenyl)-4-(((1r,4r)-4-methoxycyclohexyl)amino)but-2-enamide] | 280 | A (A binding rate of 80% or more is rated “A”) | 32
CO[C@H]1CC[C@H](N(C)C/C=C/C(=O)Nc2ccc(C(=O)c3ccc4c(-c5cc6ncn(C)c6cc5C(F)(F)F)cccn34)cc2C#N)CC1 [Example 78, (E)-N-(2-cyano-4-(8-(1-methyl-6-(trifluoromethyl)-1H-benzo[d]imidazol-5-yl)indolizine-3-carbonyl)phenyl)-4-(((1r,4r)-4-methoxycyclohexyl)(methyl)amino)but-2-enamide] | 400 | C (a binding rate of 40% or more and less than 60% is rated “C”) | 96
CO[C@H]1CC[C@H](NC/C=C/C(=O)Nc2ccc(C(=O)c3cnc4c(-c5cc6ncn(C)c6cc5C(F)(F)F)cccn34)cc2C#N)CC1 [Example 80, (E)-N-(2-cyano-4-(8-(1-methyl-6-(trifluoromethyl)-1H-benzo[d]imidazol-5-yl)imidazo[1,2-a]pyridine-3-carbonyl)phenyl)-4-(((1r,4r)-4-methoxycyclohexyl)amino)but-2-enamide] | 190 | A (A binding rate of 80% or more is rated “A”) | 27
COc1cc2c(cc1-c1cccn3c(C(=O)c4ccc(NC(=O)/C=C/CN[C@H]5CC[C@H](OC)CC5)c(C#N)c4)ccc13)ncn2C [Example 81, (E)-N-(2-cyano-4-(8-(6-methoxy-1-methyl-1H-benzo[d]imidazol-5-yl)indolizine-3-carbonyl)phenyl)-4-(((1r,4r)-4-methoxycyclohexyl)amino)but-2-enamide] | 70 | A (A binding rate of 80% or more is rated “A”) | 21
